Measurements from ChEMBL document CHEMBL3425421, “Chromone derivatives from a sponge-derived strain of the fungus Corynespora cassiicola” (J Nat Prod, 2015).
Activity calls are given as the source filed them.

Columns and labels:
HL-60 = experiment: Cytotoxicity against human HL60 cells by MTT assay; assay type: functional, cell-based
A549 = experiment: Cytotoxicity against human A549 cells by MTT assay; assay type: functional, cell-based
HeLa = experiment: Cytotoxicity against human HeLa cells by MTT assay; assay type: functional, cell-based
K562 = experiment: Cytotoxicity against human K562 cells by MTT assay; assay type: functional, cell-based
Bacillus cereus = experiment: Antibacterial activity against Bacillus cereus assessed as absence of growth after 18 hrs by conventional broth dilution assay; assay type: functional, organism-based
Bacillus subtilis = experiment: Antibacterial activity against Bacillus subtilis assessed as absence of growth after 18 hrs by conventional broth dilution assay; assay type: functional, organism-based
[1] = tested on: Tetragenococcus halophilus; experiment: Antibacterial activity against Tetragenococcus halophilus assessed as absence of growth after 18 hrs by conventional broth dilution assay; assay type: functional
Staphylococcus = experiment: Antibacterial activity against Staphylococcus albus assessed as absence of growth after 18 hrs by conventional broth dilution assay; assay type: functional, organism-based
Staphylococcus aureus = experiment: Antibacterial activity against Staphylococcus aureus assessed as absence of growth after 18 hrs by conventional broth dilution assay; assay type: functional, organism-based
Pseudomonas putida = experiment: Antibacterial activity against Pseudomonas putida assessed as absence of growth after 18 hrs by conventional broth dilution assay; assay type: functional, organism-based
Vibrio parahaemolyticus = experiment: Antibacterial activity against Vibrio parahaemolyticus assessed as absence of growth after 18 hrs by conventional broth dilution assay; assay type: functional, organism-based
[2] = biological target: Acetylcholinesterase (Electrophorus electricus) (UniProt O42275); experiment: Inhibition of electric eel AChE using acetylthiocholine iodide as substrate by Ellman's method
[3] = biological target: T1, DNA topoisomerase (Bos taurus) (UniProt A0JN73); experiment: Inhibition of calf thymus Topoisomerase 1 relaxation activity by plasmid relaxation assay
T1 sequence (whole entry): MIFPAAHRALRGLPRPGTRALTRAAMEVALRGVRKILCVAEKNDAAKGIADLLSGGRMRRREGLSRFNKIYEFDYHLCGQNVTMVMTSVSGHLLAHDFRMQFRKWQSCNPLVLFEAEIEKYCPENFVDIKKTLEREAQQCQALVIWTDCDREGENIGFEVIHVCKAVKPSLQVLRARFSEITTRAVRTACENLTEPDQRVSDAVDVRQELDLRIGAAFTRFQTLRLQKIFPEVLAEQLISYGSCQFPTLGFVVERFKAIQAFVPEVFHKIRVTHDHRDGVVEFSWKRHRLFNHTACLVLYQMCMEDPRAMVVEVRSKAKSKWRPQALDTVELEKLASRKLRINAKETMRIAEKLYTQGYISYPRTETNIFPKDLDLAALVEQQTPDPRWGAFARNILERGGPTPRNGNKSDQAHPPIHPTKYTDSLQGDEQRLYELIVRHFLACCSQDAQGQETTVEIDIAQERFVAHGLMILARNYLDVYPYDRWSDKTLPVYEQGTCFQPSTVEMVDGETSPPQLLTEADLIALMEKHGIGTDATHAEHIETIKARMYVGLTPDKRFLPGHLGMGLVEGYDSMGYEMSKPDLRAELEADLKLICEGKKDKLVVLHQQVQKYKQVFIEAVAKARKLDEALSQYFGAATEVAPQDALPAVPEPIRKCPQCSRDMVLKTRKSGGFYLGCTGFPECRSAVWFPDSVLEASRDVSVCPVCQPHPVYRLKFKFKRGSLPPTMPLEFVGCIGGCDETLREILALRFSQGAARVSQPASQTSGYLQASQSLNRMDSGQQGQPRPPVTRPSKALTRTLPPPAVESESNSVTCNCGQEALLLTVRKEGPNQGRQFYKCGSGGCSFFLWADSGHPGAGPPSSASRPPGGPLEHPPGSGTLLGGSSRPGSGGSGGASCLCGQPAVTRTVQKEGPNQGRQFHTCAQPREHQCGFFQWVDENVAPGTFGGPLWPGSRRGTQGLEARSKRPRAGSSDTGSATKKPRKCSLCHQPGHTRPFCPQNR

Amphibalanus amphitrite = experiment: Antifouling activity against Balanus amphitrite Darwin; assay type: functional, organism-based

Measured: inhibition

Acetylcholinesterase (Electrophorus electricus), sequence (O42275 24-633 limits assumed): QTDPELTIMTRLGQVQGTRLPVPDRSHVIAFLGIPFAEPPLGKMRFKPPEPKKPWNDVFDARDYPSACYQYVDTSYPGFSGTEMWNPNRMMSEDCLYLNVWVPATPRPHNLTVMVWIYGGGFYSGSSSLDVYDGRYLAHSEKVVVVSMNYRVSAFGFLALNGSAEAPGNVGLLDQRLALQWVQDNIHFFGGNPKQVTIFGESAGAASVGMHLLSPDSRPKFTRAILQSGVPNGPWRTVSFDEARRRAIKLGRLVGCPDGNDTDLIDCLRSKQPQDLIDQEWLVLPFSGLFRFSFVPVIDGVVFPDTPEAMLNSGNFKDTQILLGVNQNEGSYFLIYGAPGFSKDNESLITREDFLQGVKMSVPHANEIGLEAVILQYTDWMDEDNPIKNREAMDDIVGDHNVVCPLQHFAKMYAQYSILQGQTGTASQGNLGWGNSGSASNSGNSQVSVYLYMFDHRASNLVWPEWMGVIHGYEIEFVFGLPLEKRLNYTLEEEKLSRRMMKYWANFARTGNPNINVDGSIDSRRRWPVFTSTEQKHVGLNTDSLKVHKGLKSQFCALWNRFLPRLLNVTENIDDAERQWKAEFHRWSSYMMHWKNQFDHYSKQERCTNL

CCOC(=O)Cc1cc(O)cc2c1C(=O)C[C@@H](C[C@H](C)O)O2
inactive: all assays above

Cc1cc(=O)c2c(CC(=O)OCC(C)C)cc(O)cc2o1
inactive: all assays above

CC(C)COC(=O)Cc1cc(O)cc2c1C(=O)C[C@@H](C[C@H](C)O)O2
inactive: all assays above

CCOC(=O)Cc1cc(O)cc2c1C(=O)C[C@H](C[C@H](C)O)O2
inactive: all assays above

COc1c(O)cc(CC(=O)O)c2c1O[C@H](C[C@H](C)O)CC2=O
inactive: all assays above

CC(=O)C[C@H]1CC(=O)c2c(CC(=O)O)cc(O)cc2O1
inactive: all assays above

C[C@H](O)C[C@@H]1CC(=O)c2c(CC(=O)O)cc(O)cc2O1
inactive: all assays above

COc1c(O)cc(CC(=O)O)c2c1O[C@@H](C[C@H](C)O)CC2=O
inactive: all assays above

CCOC(=O)Cc1cc(O)cc2oc(/C=C/C[C@H](C)O)cc(=O)c12
inactive: all assays above

C[C@H](O)C[C@H]1CC(=O)c2c(CC(=O)O)cc(O)cc2O1
inactive: all assays above

CC(C)COC(=O)Cc1cc(O)cc2c1C(=O)C[C@H](C[C@H](C)O)O2
inactive: all assays above

CCOC(=O)Cc1cc(O)cc2oc(C)cc(=O)c12
inactive: all assays above
